US20260217767A1, “NOVEL A4B7 THIOETHER PEPTIDE DIMER ANTAGONISTS” (Protagonist Therapeutics, Inc., priority 2014, published 2026)
Where a SMILES comes first, the peptide text is derived from it.

What was measured:
rh integrin α4β7 = biological target: T1, rh integrin α4β7 (Homo sapiens, UniProt P13612+P26010); test: α4β7-MAdCAM Competition ELISA; format: binding; conditions: thioether monomer peptides, Table 6; read-out: ELISA A4B7
T1 construct: purchased R&D Systems 5397-A30
T1 sequence (P13612 34-977 limits assumed): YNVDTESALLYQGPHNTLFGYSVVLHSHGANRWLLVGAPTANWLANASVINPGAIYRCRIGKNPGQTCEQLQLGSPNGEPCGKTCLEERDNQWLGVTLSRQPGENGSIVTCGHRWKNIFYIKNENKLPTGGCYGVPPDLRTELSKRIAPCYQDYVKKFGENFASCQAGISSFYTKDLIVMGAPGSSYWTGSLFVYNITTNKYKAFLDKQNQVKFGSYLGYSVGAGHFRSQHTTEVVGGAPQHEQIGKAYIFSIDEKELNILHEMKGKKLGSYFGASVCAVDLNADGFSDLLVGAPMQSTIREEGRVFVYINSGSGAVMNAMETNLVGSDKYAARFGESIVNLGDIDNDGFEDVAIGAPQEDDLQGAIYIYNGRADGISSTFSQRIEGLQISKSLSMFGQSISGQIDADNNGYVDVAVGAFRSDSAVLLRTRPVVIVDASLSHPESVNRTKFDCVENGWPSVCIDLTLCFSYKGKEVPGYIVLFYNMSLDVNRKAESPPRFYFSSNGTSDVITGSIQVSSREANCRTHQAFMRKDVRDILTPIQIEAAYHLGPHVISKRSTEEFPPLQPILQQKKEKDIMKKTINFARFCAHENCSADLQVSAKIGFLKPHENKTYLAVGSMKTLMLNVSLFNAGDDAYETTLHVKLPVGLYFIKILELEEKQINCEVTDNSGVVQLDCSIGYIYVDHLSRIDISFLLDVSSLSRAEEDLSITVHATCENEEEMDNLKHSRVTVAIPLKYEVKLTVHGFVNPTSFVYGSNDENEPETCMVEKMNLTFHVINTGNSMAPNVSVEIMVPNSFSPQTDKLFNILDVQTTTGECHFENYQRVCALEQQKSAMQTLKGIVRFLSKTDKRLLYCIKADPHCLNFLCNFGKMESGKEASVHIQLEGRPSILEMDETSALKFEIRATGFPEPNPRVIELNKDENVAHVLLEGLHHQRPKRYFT
T1 sequence (P26010 20-723 limits assumed): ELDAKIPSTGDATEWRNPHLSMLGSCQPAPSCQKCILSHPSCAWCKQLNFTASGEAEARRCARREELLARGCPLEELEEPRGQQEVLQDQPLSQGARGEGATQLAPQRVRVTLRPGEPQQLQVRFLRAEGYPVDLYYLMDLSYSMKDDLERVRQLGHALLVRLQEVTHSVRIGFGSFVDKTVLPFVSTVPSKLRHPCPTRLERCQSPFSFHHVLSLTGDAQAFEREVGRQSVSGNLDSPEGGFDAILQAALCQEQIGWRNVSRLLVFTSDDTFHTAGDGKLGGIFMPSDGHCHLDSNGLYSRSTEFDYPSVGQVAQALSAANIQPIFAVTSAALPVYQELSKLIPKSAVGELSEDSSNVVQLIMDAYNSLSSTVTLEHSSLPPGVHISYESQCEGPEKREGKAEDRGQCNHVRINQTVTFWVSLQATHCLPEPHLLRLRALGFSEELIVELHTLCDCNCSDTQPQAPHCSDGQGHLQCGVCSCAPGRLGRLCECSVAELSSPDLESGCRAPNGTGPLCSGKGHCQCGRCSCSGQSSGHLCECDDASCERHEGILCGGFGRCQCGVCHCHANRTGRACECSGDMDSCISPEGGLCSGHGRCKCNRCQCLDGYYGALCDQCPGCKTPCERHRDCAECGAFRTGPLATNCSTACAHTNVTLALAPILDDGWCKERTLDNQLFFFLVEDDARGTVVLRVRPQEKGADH
Method: α4β7-MAdCAM Competition ELISA A nickel coated plate (Pierce #15442) was coated with rh integrin α4β[…] Systems #5397-A30) at 800 ng/well and incubated at room temperature with shaking for 1 hr. The solution was then removed by shaking and blocked with assay buffer (50 mM Tris-HCl pH7.6, 150 mM NaCl, 1 mM MnCl2 or MgCl2, 0.05% Tween-20 and 0.5% BSA) at 250 ul/well. The plate was then incubated at room temperature for 1 hr. Each well was washed 3 times with wash buffer (50 mM Tris-HCl pH7.6, 100 mM NaCl, 1 mM MnCl2 or MgCl2, 0.05% Tween-20). To each well was added 25 ul of a serial dilution (3-fold dilutions in assay buffer) of peptides starting at 20 μM. 25 ul of recombinant human MAdCAM-1 (R&D Systems #6056-MC) was then added to each well at a fixed concentration 20 nM. The final starting peptide concentration was 10 μM, and the final MAdCAM-1 concentration was 10 nM. The plates were then incubated at room temperature for 1 hr to reach binding equilibrium. The wells were then washed three times with wash buffer. 50 ul of mouse anti-human IgG1-HRP (Invitrogen #A10648) diluted in 1:2000 in assay buffer was then added to each well. The wells were incubated at room temperature for 45 min with shaking. The wells were then washed 3 times with wash buffer. 100 ul of TMB were then added to each well and closely observe during development time. The reaction was stopped with 2N H2SO4 and absorbance was read at 450 nm.

[1] = Simulated Intestinal Fluid (SIF) Stability Assay; format: in vitro ADME; conditions: pig, 37° C., monomers, Table 6; for half-life: porcine pancreatin; for half-life at 22 μM: simulated intestinal fluid (SIF) with 1% porcine pancreatin, pH 6.5, porcine pancreatin
Method in brief: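 Peptide at 22 μM final was incubated at 37° C in blank FaSSIF pH 6.5 with 1% porcine pancreatin. Timed samples were quenched in acetonitrile/methanol/formic acid with internal standard and analysed by LC-MS/MS. Half-lives came from first-order exponential fits of percent remaining.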

SMILES	IC50 (rh integrin α4β7) [nM]	half-life [1] [h]	half-life at 22 μM [1] [h]
CC(C)C[C@@H]1NC(=O)[C@H]([C@@H](C)O)NC(=O)[C@H](CC(=O)O)NC(=O)[C@H](CO)NC(=O)[C@H](CCCNC(=N)N)N(C)C(=O)c2ccccc2CSC(C)(C)[C@@H](C(=O)N[C@@H](Cc2ccc(C(F)(F)F)cc2)C(=O)N[C@@H](CCC(=O)O)C(=O)N[C@H](CCCCN)C(N)=O)NC1=O [compound 76] (HELM PEPTIDE1{[meR].S.D.T.L.[Pen].[O=C([C@H](Cc1ccc(C(F)(F)F)cc1)N[*:1])[*:2]].E.[dK].[am]}|CHEM1{[O=C(c1ccccc1C[*:2])[*:1]]}$PEPTIDE1,CHEM1,1:R1-1:R1|PEPTIDE1,CHEM1,6:R3-1:R2$$$V2.0)	< 25	> 3	–
CC(C)C[C@@H]1NC(=O)[C@H]([C@@H](C)O)NC(=O)[C@H](CC(=O)O)NC(=O)[C@H](CO)NC(=O)[C@H](CCCNC(=N)N)N(C)C(=O)c2ccccc2CSC(C)(C)[C@@H](C(=O)N[C@@H](Cc2ccccc2)C(=O)N[C@@H](CCC(=O)O)CC(=O)N[C@H](CCCCN)C(N)=O)NC1=O [compound 73] (HELM PEPTIDE1{[meR].S.D.T.L.[Pen].F.[O=C(O)CC[C@@H](CC(=O)[*:2])N[*:1]].[dK].[am]}|CHEM1{[O=C(c1ccccc1C[*:2])[*:1]]}$PEPTIDE1,CHEM1,1:R1-1:R1|PEPTIDE1,CHEM1,6:R3-1:R2$$$V2.0)	< 25	–	> 3
CC(C)C[C@@H]1NC(=O)[C@H]([C@@H](C)O)NC(=O)[C@H](CC(=O)O)NC(=O)[C@H](CO)NC(=O)[C@H](CCCNC(=N)N)N(C)C(=O)c2ccccc2CSC(C)(C)[C@@H](C(=O)N[C@@H](Cc2cccc3ccccc23)C(=O)N[C@H](CCC(=O)O)C(=O)N[C@H](CCCCN)C(N)=O)NC1=O [compound 68] (HELM PEPTIDE1{[meR].S.D.T.L.[Pen].[O=C([C@H](Cc1cccc2ccccc12)N[*:1])[*:2]].[dE].[dK].[am]}|CHEM1{[O=C(c1ccccc1C[*:2])[*:1]]}$PEPTIDE1,CHEM1,1:R1-1:R1|PEPTIDE1,CHEM1,6:R3-1:R2$$$V2.0)	< 25	–	> 3
CC(C)C[C@@H]1NC(=O)[C@H]([C@@H](C)O)NC(=O)[C@H](CC(=O)O)NC(=O)[C@H](CO)NC(=O)[C@H](CCCNC(=N)N)N(C)C(=O)c2ccccc2CSC[C@H](C(=O)N[C@@H](Cc2c[nH]c3ccccc23)C(=O)N[C@@H](CCC(=O)O)CC(=O)N[C@H](CCCCN)C(N)=O)NC1=O [compound 66] (HELM PEPTIDE1{[meR].S.D.T.L.[dC].W.[O=C(O)CC[C@@H](CC(=O)[*:2])N[*:1]].[dK].[am]}|CHEM1{[O=C(c1ccccc1C[*:2])[*:1]]}$PEPTIDE1,CHEM1,1:R1-1:R1|PEPTIDE1,CHEM1,6:R3-1:R2$$$V2.0)	25 to 100	> 3	–
CC(C)C[C@@H]1NC(=O)[C@H]([C@@H](C)O)NC(=O)[C@H](CC(=O)O)NC(=O)[C@H](CO)NC(=O)[C@H](CCCNC(=N)N)N(C)C(=O)c2ccccc2CSC(C)(C)[C@@H](C(=O)N[C@H](Cc2ccccc2)C(=O)N[C@@H](Cc2ccc3ccccc3c2)C(=O)N[C@H](CCCCN)C(N)=O)NC1=O [compound 71] (HELM PEPTIDE1{[meR].S.D.T.L.[Pen].[dF].[O=C([C@H](Cc1ccc2ccccc2c1)N[*:1])[*:2]].[dK].[am]}|CHEM1{[O=C(c1ccccc1C[*:2])[*:1]]}$PEPTIDE1,CHEM1,1:R1-1:R1|PEPTIDE1,CHEM1,6:R3-1:R2$$$V2.0)	25 to 100	–	> 3
CC(C)C[C@@H]1NC(=O)[C@H]([C@@H](C)O)NC(=O)[C@H](CC(=O)O)NC(=O)[C@H](CO)NC(=O)[C@H](CCCNC(=N)N)N(C)C(=O)c2ccccc2CSC(C)(C)[C@@H](C(=O)N[C@@H](Cc2cccc3ccccc23)C(=O)N[C@@H](CCC(=O)O)C(=O)N[C@H](CCCCN)C(N)=O)NC1=O [compound 77] (HELM PEPTIDE1{[meR].S.D.T.L.[Pen].[O=C([C@H](Cc1cccc2ccccc12)N[*:1])[*:2]].E.[dK].[am]}|CHEM1{[O=C(c1ccccc1C[*:2])[*:1]]}$PEPTIDE1,CHEM1,1:R1-1:R1|PEPTIDE1,CHEM1,6:R3-1:R2$$$V2.0)	< 25	1.47	–
CC(C)C[C@@H]1NC(=O)[C@H]([C@@H](C)O)NC(=O)[C@H](CC(=O)O)NC(=O)[C@H](CO)NC(=O)[C@H](CCCNC(=N)N)N(C)C(=O)c2ccccc2CSC(C)(C)[C@@H](C(=O)N[C@@H](Cc2ccc3ccccc3c2)C(=O)N[C@H](CCC(=O)O)C(=O)N[C@H](CCCCN)C(N)=O)NC1=O [compound 75] (HELM PEPTIDE1{[meR].S.D.T.L.[Pen].[O=C([C@H](Cc1ccc2ccccc2c1)N[*:1])[*:2]].[dE].[dK].[am]}|CHEM1{[O=C(c1ccccc1C[*:2])[*:1]]}$PEPTIDE1,CHEM1,1:R1-1:R1|PEPTIDE1,CHEM1,6:R3-1:R2$$$V2.0)	< 25	–	> 3
CC(C)C[C@@H]1NC(=O)[C@H]([C@@H](C)O)NC(=O)[C@H](CC(=O)O)NC(=O)[C@H](CO)NC(=O)[C@H](CCCNC(=N)N)N(C)C(=O)CSC(C)(C)[C@@H](C(=O)N[C@@H](Cc2c[nH]c3ccccc23)C(=O)N[C@H](CCCCN)C(N)=O)NC1=O [compound 53]	100 to 1000	–	> 3
CC(C)C[C@@H]1NC(=O)[C@H]([C@@H](C)O)NC(=O)[C@H](CC(=O)O)NC(=O)[C@H](CO)NC(=O)[C@H](CCCNC(=N)N)N(C)C(=O)c2ccccc2CSC(C)(C)[C@@H](C(=O)N[C@@H](Cc2c[nH]c3ccccc23)C(=O)N[C@@H](CCC(=O)O)C(=O)N(C)[C@H](CCCCN)C(N)=O)NC1=O [compound 62] (HELM PEPTIDE1{[meR].S.D.T.L.[Pen].W.E.[CN([C@H](CCCCN)C(=O)[*:2])[*:1]].[am]}|CHEM1{[O=C(c1ccccc1C[*:2])[*:1]]}$PEPTIDE1,CHEM1,1:R1-1:R1|PEPTIDE1,CHEM1,6:R3-1:R2$$$V2.0)	< 25	–	> 3
CC(C)C[C@@H]1NC(=O)[C@H]([C@@H](C)O)NC(=O)[C@H](CC(=O)O)NC(=O)[C@H](CO)NC(=O)[C@H](CCCNC(=N)N)N(C)C(=O)c2ccccc2CSC(C)(C)[C@@H](C(=O)N[C@@H](Cc2ccc(O)cc2)C(=O)N[C@@H](CCC(=O)O)CC(=O)N[C@H](CCCCN)C(N)=O)NC1=O [compound 74] (HELM PEPTIDE1{[meR].S.D.T.L.[Pen].Y.[O=C(O)CC[C@@H](CC(=O)[*:2])N[*:1]].[dK].[am]}|CHEM1{[O=C(c1ccccc1C[*:2])[*:1]]}$PEPTIDE1,CHEM1,1:R1-1:R1|PEPTIDE1,CHEM1,6:R3-1:R2$$$V2.0)	< 25	–	> 3
